Assay results taken from patent US6486199B1, “Spiro and dispiro 1,2,4-trioxolane antimalarials” (Medicines for Malaria Venture MMV International Centre …, priority 2001, dated 2002).

Key:
[1] = differential scanning calorimetry (DSC), thermal stability; type: physicochemical; settings: thermal decomposition
[2] = system: ANKA strain of P. Berghei; experiment: single dose STI in vivo screen in infected Moro SPF mice; settings: for Activity (%) po / Activity (%) sc: percent reduction in parasitemia day 3 post-infection; for Activity (%) po / Survival (days) po: single 10 mg/kg po; for Activity (%) sc / Survival (days) sc: single 10 mg/kg sc; for antimalarial activity, overall assessment: overall judgement of in vitro and in vivo data of Table 2
Experimental: In the single dose STI in vivo screen, Moro SPF mice infected with the ANKA strain of P. Berghei (groups of three mice) were treated on day one post-infection with trioxolanes dissolved or suspended in 3% ethanol and 7% Tween 80. […] Antimalarial activity was measured by percent redution in parasitemia on day three post-infection and survival times compared to an untreated control group. Survival to day 30 post-infection is considered to be a cure.

O=C1CC2CC(C1)CC1(C2)OOC2(O1)C1CC3CC(C1)CC2C3 (stereo not shown) [OZ13, Adamantane-2-spiro-3′-1′,2′,4′-trioxolane-5′-spiro-3″-7″-oxobicyclo[3.3.1]nonane]
Tm dec. (° C.) [1]: 170.1 °C

ON=C1CCC2(CC1)OOC1(O2)C2CC3CC(C2)CC1C3 (stereo not shown) [OZ16, Adamantane-2-spiro-3′-8′-hydroxyimino-1′,2′,4′-trioxaspiro[4.5]decane]
Tm dec. (° C.) [1]: 153.6 °C

CC1(C)CC(C)(C)CC2(C1)OOC1(O2)C2CC3CC(C2)CC1C3 (stereo not shown) [OZ26, Adamantane-2-spiro-3′-7′,9′-tetramethyl-1′,2′,4′-trioxaspiro[4.5]decane]
Tm dec. (° C.) [1]: 173.4 °C

CC(C)(C)ON=C1CCC2(CC1)OOC1(O2)C2CC3CC(C2)CC1C3 (stereo not shown) [OZ28, Adamantane-2-spiro-3′-8′-t-butyloxyimino-1′,2′,4′-trioxaspiro[4.5]decane]
Tm dec. (° C.) [1]: 162.4 °C

CC1(C)CCC2(CC1)OOC1(O2)C2CC3CC(C2)CC1C3 (stereo not shown) [OZ33, Adamantane-2-spiro-3′-8′,8′-dimethyl-1′,2′,4′-trioxaspiro[4.5]decane]
Tm dec. (° C.) [1]: 163.1 °C

c1ccc(C2(c3ccccc3)CCC3(CC2)OOC2(O3)C3CC4CC(C3)CC2C4)cc1 (stereo not shown) [OZ34, Adamantane-2-spiro-3′-8′,8′-diphenyl-1′,2′,4′-trioxaspiro[4.5]decane]
Activity (%) po [2]: 0/0% | Activity (%) sc [2]: 0/0% | Tm dec. (° C.) [1]: 181.4 °C

CC(C)(C)OC(=O)N1CCC2(CC1)OOC1(O2)C2CC3CC(C2)CC1C3 (stereo not shown) [OZ35, Adamantane-2-spiro-3′-8′-t-butoxycarbonyl-1′,2′,4′-trioxa-8′-azaspiro[4.5]decane]
Tm dec. (° C.) [1]: 159.4 °C

CON=C1CC2CC3(CC2C1)OOC1(O3)C2CC3CC(C2)CC1C3 (stereo not drawn) [OZ37, Adamantane-2-spiro-3′-1′,2′,4′-trioxolane-5′-spiro-3″-7″-methoxyimino-cis-bicyclo[3.3.0]octane]
Tm dec. (° C.) [1]: 151.2 °C

O=C1c2ccccc2C(=O)N1N=C1CCC2(CC1)OOC1(O2)C2CC3CC(C2)CC1C3 (stereo not shown) [OZ38, Adamantane-2-spiro-3′-8′-(N-phthalimido)imino-1′,2′,4′-trioxaspiro[4.5]decane]
Tm dec. (° C.) [1]: 165.1 °C

CC(C)C1CCC2(CC1)OOC1(O2)C2CC3CC(C2)CC1C3 (stereo not shown) [OZ40, Adamantane-2-spiro-3′-8′-isopropyl-1′,2′,4′-trioxaspiro[4.5]decane]
Tm dec. (° C.) [1]: 164.2 °C

c1ccc(C2(c3ccccc3)OOC3(O2)C2CC4CC(C2)CC3C4)cc1 (stereo not shown) [OZ42, Adamantane-2-spiro-3′-5′,5′-diphenyl-1′,2′,4′-trioxolane]
Tm dec. (° C.) [1]: 159.1 °C

Fc1ccc(C2(c3ccc(F)cc3)OOC3(O2)C2CC4CC(C2)CC3C4)cc1 (stereo not shown) [OZ44, Adamantane-2-spiro-3′-5′, 5′-bis(4′-fluorophenyl)-1′,2′,4′-trioxolane]
Tm dec. (° C.) [1]: 157.5 °C

Fc1c(F)c(F)c(C2(c3c(F)c(F)c(F)c(F)c3F)OOC3(O2)C2CC4CC(C2)CC3C4)c(F)c1F (stereo not shown) [OZ45, Adamantane-2-spiro-3′-5′,5′-bis(2′,3′,4′,5′,6′-pentafluorophenyl)-5′,2′,4′-trioxolane]
Tm dec. (° C.) [1]: 133.7 °C

FC(F)(F)c1cccc(C2(c3cccc(C(F)(F)F)c3)OOC3(O2)C2CC4CC(C2)CC3C4)c1 (stereo not shown) [OZ46, Adamantane-2-spiro-3′-5′,5′-bis[3′-(trifluoromethyl)phenyl]-1′,2′,4′-trioxolane]
Tm dec. (° C.) [1]: 161.3 °C

Clc1ccc(C2CCC3(CC2)OOC2(O3)C3CC4CC(C3)CC2C4)cc1 (stereo not shown) [OZ47, Adamantane-2-spiro-3′-8′-(4′-chlorophenyl)-1′,2′,4′-trioxaspiro[4.5]decane]
Tm dec. (° C.) [1]: 159.3 °C

FC(F)(F)c1ccc(C2CCC3(CC2)OOC2(O3)C3CC4CC(C3)CC2C4)cc1 (stereo not shown) [OZ48, Adamantane-2-spiro-3′-8′-[4′-(trifluoromethyl)phenyl]-1′,2′,4′-trioxaspiro[4.5]decane]
Tm dec. (° C.) [1]: 156.1 °C

Cc1ccc(S(=O)(=O)N2CCC3(CC2)OOC2(O3)C3CC4CC(C3)CC2C4)cc1 (stereo not shown) [OZ51, Adamantane-2-spiro-3′-8′-(p-toluenesulfonyl)-1′,2′,4′-trioxa-8′-azaspiro[4.5]decane]
Tm dec. (° C.) [1]: 152.3 °C

c1ccc(CC2(Cc3ccccc3)OOC3(O2)C2CC4CC(C2)CC3C4)cc1 (stereo not shown) [OZ52, Adamantane-2-spiro-3′-5′,5′-dibenzyl-1′,2′,4′-trioxolane]
Tm dec. (° C.) [1]: 154.9 °C

CCOC(=O)CCC(=O)N1CCC2(CC1)OOC1(O2)C2CC3CC(C2)CC1C3 (stereo not shown) [OZ53, Adamantane-2-spiro-3′-8′-[3′-(ethoxycarbonyl)propionyl]-1′,2′,4′-trioxa-8′-azaspiro[4.5]decane]
Tm dec. (° C.) [1]: 152.7 °C

O=C(O)CON=C1CCC2(CC1)OOC1(O2)C2CC3CC(C2)CC1C3 (stereo not shown) [OZ54, Adamantane-2-spiro-3′-8′-carboxymethoxyimino-1′,2′,4′-trioxaspiro[4.5]decane]
Survival (days) po [2]: 7.0/7.0 days | Survival (days) sc [2]: 7.0/7.0 days | Tm dec. (° C.) [1]: 149.3 °C

CS(=O)(=O)N1CCC2(CC1)OOC1(O2)C2CC3CC(C2)CC1C3 (stereo not shown) [OZ56, Adamantane-2-spiro-3′-8′-methanesulfonyl-1′,2′,4′-trioxa-8′-azaspiro[4.5]decane]
Tm dec. (° C.) [1]: 158.0 °C

O=S(=O)(c1ccc(Cl)cc1)N1CCC2(CC1)OOC1(O2)C2CC3CC(C2)CC1C3 (stereo not shown) [OZ57, Adamantane-2-spiro-3′-8′-(4′-chlorobenzenesulfonyl)-1′,2′,4′-trioxa-8′-azaspiro[4.5]decane]
Tm dec. (° C.) [1]: 158.0 °C

O=C(O)CCC(=O)N1CCC2(CC1)OOC1(O2)C2CC3CC(C2)CC1C3 (stereo not shown) [OZ58, Adamantane-2-spiro-3′-8′-(3′-carboxypropionyl)-1′,2′,4′-trioxa-8′-azaspiro[4.5]decane]
Tm dec. (° C.) [1]: 147.0 °C

COc1ccc(S(=O)(=O)N2CCC3(CC2)OOC2(O3)C3CC4CC(C3)CC2C4)cc1 (stereo not shown) [OZ59, Adamantane-2-spiro-3′-8′-(4′-methoxybenzenesulfonyl)-1′,2′,4′-trioxa-8′-azaspiro[4.5]decane]
Tm dec. (° C.) [1]: 152.2 °C

O=S(=O)(c1ccccc1)N1CCC2(CC1)OOC1(O2)C2CC3CC(C2)CC1C3 (stereo not shown) [OZ60, Adamantane-2-spiro-3′-8′-benzenesulfonyl-1′, 2′,4′-trioxa-8′-azaspiro[4.5]decane]
Tm dec. (° C.) [1]: 152.6 °C

N#CC1(c2ccccc2)CCC2(CC1)OOC1(O2)C2CC3CC(C2)CC1C3 (stereo not shown) [OZ63, Adamantane-2-spiro-3′-8′-cyano-8′-phenyl-1′,2′,4′-trioxaspiro[4.5]decane]
Tm dec. (° C.) [1]: 158.3 °C

CC(C)(C)COC(=O)C1CCC2(CC1)OOC1(O2)C2CC3CC(C2)CC1C3 (stereo not shown) [OZ64, Adamantane-2-spiro-3′-8′-neopentyloxycarbonyl-1′,2′,4′-trioxaspiro[4.5]decane]
Tm dec. (° C.) [1]: 163.8 °C

c1ccc(C2CCC3(CC2)OOC2(O3)C3CCCC2CCC3)cc1 (stereo not shown) [OZ67, Bicyclo[3.3.1]nonane-9-spiro-3′-8′-phenyl-1′,2′,4′-trioxaspiro[4.5]decane]
antimalarial activity, overall assessment [2]: completely inactive | Activity (%) po [2]: 0/0% | Activity (%) sc [2]: 0/0% | Survival (days) po [2]: 5.0/5.0 days | Survival (days) sc [2]: 5.0/5.0 days | Tm dec. (° C.) [1]: 162.3 °C

CC1(C)COC2(CCC3(CC2)OOC2(O3)C3CCCC2CCC3)OC1 (stereo not shown) [OZ68, Bicyclo[3.3.1]nonane-9-spiro-3′-11′,11′-dimethyl-1′,2′,4′,9′,13′-pentaoxadispiro[4.2.5.2]pentadecane]
antimalarial activity, overall assessment [2]: similarly inactive | Tm dec. (° C.) [1]: 163.1 °C

CC(=O)OC1(c2ccc(F)cc2)CCC2(CC1)OOC1(O2)C2CC3CC(C2)CC1C3 (stereo not shown) [OZ69, Adamantane-2-spiro-3′-8′-acetoxy-8′-(4′-fluorophenyl)-1′,2′,4′-trioxaspiro[4.5]decane]
Survival (days) po [2]: 6.3/6.3 days | Survival (days) sc [2]: 6.3/6.3 days | Tm dec. (° C.) [1]: 164.1 °C

CCN(CC)C(=O)C1CCC2(CC1)OOC1(O2)C2CC3CC(C2)CC1C3 (stereo not shown) [OZ73, Adamantane-2-spiro-3′-8′-diethylaminocarbonyl-1′,2′,4′-trioxaspiro[4.5] decane]
antimalarial activity, overall assessment [2]: only weakly active | Tm dec. (° C.) [1]: 160.2 °C

O=C(OC1CCC2(CC1)OOC1(O2)C2CC3CC(C2)CC1C3)c1ccccc1 (stereo not shown) [OZ74, Adamantane-2-spiro-3′-8′-benzoyloxy-1′,2′,4′-trioxaspiro[4.5]decane]
Tm dec. (° C.) [1]: 161.2 °C

N#CC1(c2ccc(Cl)c(Cl)c2)CCC2(CC1)OOC1(O2)C2CC3CC(C2)CC1C3 (stereo not shown) [OZ75, Adamantane-2-spiro-3′-8′-cyano-8′-(3′,4′-dichlorophenyl)-1′,2′,4′-trioxaspiro[4.5]decane]
Tm dec. (° C.) [1]: 159.1 °C

OC1(c2ccc(F)cc2)CCC2(CC1)OOC1(O2)C2CC3CC(C2)CC1C3 (stereo not shown) [OZ76, Adamantane-2-spiro-3′-8′-(4′-fluorophenyl)-8′-hydroxy-1′,2′,4′-trioxaspiro[4.5]decane]
Tm dec. (° C.) [1]: 149.6 °C

COC1(c2ccc(F)cc2)CCC2(CC1)OOC1(O2)C2CC3CC(C2)CC1C3 (stereo not shown) [OZ77, Adamantane-2-spiro-3′-8′-(4′-fluorophenyl)-8′-methoxy-1′,2′,4′-trioxaspiro[4.5]decane]
antimalarial activity, overall assessment [2]: excellent activity | Tm dec. (° C.) [1]: 161.3 °C
